Patent publication US4153710A, “N-(4-[2-(pyrazole-1-carbonamide)-ethyl]-benzenesulphonyl)-urea” (Starogardzkie Zaklady Farmaceutyczne POLFA, priority 1976, dated 1979)

Test system: blood-glucose concentration
Assay: Decrease in blood-glucose concentration in rats after oral dose (Table 1; ED30 rats Table 2)
Type: in vivo
Conditions: Rattus norvegicus, po; for inhibition in vivo at 0.25 mg/kg: p.os. 0.25 mg/kg; for inhibition in vivo at 0.5 mg/kg: p.os. 0.5 mg/kg; for inhibition in vivo at 1 mg/kg: p.os. 1 mg/kg; for inhibition in vivo at 2 mg/kg: p.os. 2 mg/kg; for inhibition in vivo at 4 mg/kg: p.os. 4 mg/kg; for inhibition in vivo at 10 mg/kg: p.os. 10 mg/kg; for ED50: p.os., Table 1; for inhibition in vivo at 50 mg/kg: p.os. 50 mg/kg
From the text: The hypoglycemic activity of N-{4-[2-(pyrazole-1-carbonamide)-ethyl]-benzenesulphonyl}-ureas prepared according to the present invention can be noticed after their oral administration to mice, rats, rabbits and people and when determining the glucose concentration in blood with a known enzymatic method using glucose oxidase.
The exemplary comparison of effective doses (ED30) and the effect of oral dose size of the compounds prepared according to the present invention with Glibornuride, which is distinguished by its high effectiveness and good tolerance when administered to people, on the glucose concentration in the blood of rats, is given in Table 1.

Row | SMILES | inhibition in vivo at 1 mg/kg (1 h) [%] | inhibition in vivo at 1 mg/kg (3 h) [%] | inhibition in vivo at 1 mg/kg (6 h) [%] | inhibition in vivo at 2 mg/kg (1 h) [%] | inhibition in vivo at 2 mg/kg (3 h) [%] | inhibition in vivo at 2 mg/kg (6 h) [%] | inhibition in vivo at 4 mg/kg (1 h) [%] | inhibition in vivo at 4 mg/kg (3 h) [%] | inhibition in vivo at 10 mg/kg (1 h) [%] | inhibition in vivo at 10 mg/kg (3 h) [%] | inhibition in vivo at 10 mg/kg (6 h) [%] | ED50 [mg/kg] | inhibition in vivo at 4 mg/kg (6 h) [%] | also measured
1 | O=C(NC1CCCCC1)NS(=O)(=O)c1ccc(CCNC(=O)n2cccn2)cc1 [compound 1] | 27 | 27 | 14 | 23 | 34 | 11 | 19 | 37 | 50 | 52 | 29 | 1.8 | – | inhibition in vivo at 0.25 mg/kg (1 h): 12%; inhibition in vivo at 0.25 mg/kg (3 h): 19%; inhibition in vivo at 0.25 mg/kg (6 h): 0%; inhibition in vivo at 0.5 mg/kg (1 h): 21%; inhibition in vivo at 0.5 mg/kg (3 h): 19%; inhibition in vivo at 0.5 mg/kg (6 h): 11%
2 | Cc1ccn(C(=O)NCCc2ccc(S(=O)(=O)NC(=O)NC3CCCCC3)cc2)n1 [compound 2] | 19 | 9 | 0 | 23 | 27 | 14 | 30 | 45 | – | – | – | 2.2 | 21 | –
3 | Cc1cnn(C(=O)NCCc2ccc(S(=O)(=O)NC(=O)NC3CCCCC3)cc2)c1 [compound 3] | 20 | 18 | 4 | 35 | 28 | 2 | 33 | 32 | 52 | 48 | 37 | 1.9 | – | –
4 | CCc1cnn(C(=O)NCCc2ccc(S(=O)(=O)NC(=O)NC3CCCCC3)cc2)c1 [compound 4] | 28 | 4 | 0 | 46 | 18 | 1 | 40 | 32 | 55 | 39 | 25 | 1.6 | – | –
5 | O=C(NC1CCCCC1)NS(=O)(=O)c1ccc(CCNC(=O)n2cc(Cl)cn2)cc1 [compound 5] | – | – | – | – | – | – | – | – | 16 | 0 | – | – | – | inhibition in vivo at 50 mg/kg (1 h): 38%; inhibition in vivo at 50 mg/kg (3 h): 36%; inhibition in vivo at 50 mg/kg (6 h): 12%
6 | Cc1cc(C)n(C(=O)NCCc2ccc(S(=O)(=O)NC(=O)NC3CCCCC3)cc2)n1 [compound 6] | – | – | – | – | – | – | 18 | 33 | 23 | 40 | 35 | 3.5 | 23 | –
7 | Cc1cn(C(=O)NCCc2ccc(S(=O)(=O)NC(=O)NC3CCCCC3)cc2)nc1C [compound 7] | – | – | – | 18 | 24 | 19 | – | – | 37 | 54 | 26 | 3.3 | – | inhibition in vivo at 0.25 mg/kg (1 h): 11%; inhibition in vivo at 0.25 mg/kg (3 h): 17%; inhibition in vivo at 0.25 mg/kg (6 h): 11%; inhibition in vivo at 0.5 mg/kg (1 h): 19%; inhibition in vivo at 0.5 mg/kg (3 h): 29%; inhibition in vivo at 0.5 mg/kg (6 h): 20%
8 | CCc1nn(C(=O)NCCc2ccc(S(=O)(=O)NC(=O)NC3CCCCC3)cc2)cc1C [compound 8] | 17 | 18 | 15 | – | – | – | 19 | 31 | 27 | 45 | 25 | 4 | 15 | –
9 | Cc1nn(C(=O)NCCc2ccc(S(=O)(=O)NC(=O)NC3CCCCC3)cc2)cc1Cl [compound 9] | – | – | – | – | – | – | – | – | 24 | 7 | 0 | – | – | –
